According to US20080058284A1, “Pharmaceutical compositions of semicarbazones and/or thiosemicarbazones and/or their derivatives and products of these compositions and their uses as anticonvulsant, anti-nociceptive and anti-inflammatory agents, and in the angiogenic therapy” (UNIVERSIDALE FEDERAL DE MINAS GERAIS, priority 2002, published 2008):

Assays:
motor activity of mice = test: Motor activity in rota-rod apparatus; type: in vivo; details: 10, 25 or 50 mg/kg i.p.; 30 min after injection; 14 rpm, cut-off 1 min
Experimental: The effect of BS on the motor activity of mice was evaluated in order to investigate if inhibition of the nociceptive behavior in animals treated with BS would not be the result of a central depressor effect. The motor activity was evaluated in a rota-rod apparatus. During the experiment, the mice were placed on the rota-rod (14 rpm) and the time they spent in the apparatus was determined. The cut-off time was 1 min. After the basal lecture, the animals were treated with BS (10, 25 or 50 mg/kg, intraperitoneal; i.p.). The vehicle used was 25% dimethylsulphoxide (DMSO)+10% tween 80 in saline. Thirty minutes after the injection, the time spent in the rota-rod was determined again.

[1] = test system: angiogenesis induced by sponge implant in Swiss mice; test: Angiogenesis induced by sponge implant, hemoglobin content (vascular index); type: in vivo; details: for reduction in the hemoglobin content of implants: vs vehicle-treated group
Experimental: The experiments were performed in male, Swiss mice (20-30 g; 12 weeks old) from the Animal House of the Institute of Biological Sciences, Federal University of Minas Gerais. Polyether-polyurethane sponge discs 5 mm thickness and 10 mm diameter with central cannula, used as a framework to induce fibrovascular tissue growth, were introduced through a skin incision in the back of mice anesthetized with 2,2,2-tribromoethanol ([…]) [Machado, R. D. P., Santos, R. A. S., Andrade, S. P., Life Sciences 66, 67, 2000]. The animals were housed individually and provided with normal food and water. Housing and anesthesia concurred with the guidelines established by our local Institutional Animal Welfare Committee.
Four more doses were given in the subsequent days. The animals were killed by cervical dislocation 9 days after implantation. The implants were removed and processed for hemoglobin determination (vascular index) using a modified Drabkin's method [Plunkett, M. L., Haley, J. A., Lab. Invest. […] One group of animals received injection of vehicle.

[2] = test system: thermal allodynia induced by carrageenan in Wistar male rats; test: Thermal allodynia induced by carrageenan; type: in vivo, rat; details: only at 50 mg/kg i.p., -1 h (10, 25, 50 mg/kg tested)
Experimental: (§1) In the model of thermal allodynia, the right hindpaw withdrawal latency to a thermal stimulus (Hargreaves apparatus—Ugo Basile, Italy) is determined in rats before the administration of any drug. The intensity of the thermal stimulus is adjusted to induce a basal latency about 12 s. After the basal lecture, carrageenan (1%, 50 μL) is injected into the right hindpaw. This inflammatory stimulus reduces the latency for paw withdrawal induced by the thermal stimulus, which is characterized as thermal allodynia.
as §1, with “μl)” for “μL)”

[3] = test system: carrageenan-induced edema in rats; test: Carrageenan-induced edema; type: in vivo, rat; details: 10, 25 or 50 mg/kg i.p., -1 h
Experimental: To evaluate if a coupound presents antiedematogenic activity, the model of carrageenan-induced edema in rats was used. In this model, before the administration of any drug, the right hindpaw volume is determined with a plethysmomether. After the division of the groups, carrageenan (1%, 50 μL) is injected into the plantar surface. At different times after the injection of carrageenan, the paw volume is determined again. This inflammatory stimulus induces a marked edema that is inhibited by different anti-inflammatory drugs (steroid and non-steroid), inhibitors of nitric oxide synthesis and antagonists of histamine, 5-hydroxytryptamine and bradykinin, inhibitors of nitric oxide syntheses, etc.
To evaluate if BS presents antiedematogenic activity, the model of carrageenan-induced edema in rats was used. In this model, before the administration of any drug, the right hindpaw volume is determined with a plethysmomether. After the division of the groups, carrageenan (1%, 50 μl) is injected into the plantar surface. At different times after the injection of carrageenan, the paw volume is determined again.

[4] = test system: nociceptive response induced by formaldehyde in mice; test: Licking behavior induced by formaldehyde; type: in vivo
Experimental: In the first model, licking behaviour induced by formaldehyde (0.92%, 20 μL), the inflammatory stimulus is injected into the dorsum of the right hindpaw of mice. Immediately after the injection, the animals present a nociceptive behaviour characterized by licking and biting the injected paw. The licking time is determined between 0 and 5 min and 15 and 30 min after formaldehyde injection. The first phase results from direct activations of primary afferent fibers and is inhibited mainly by centrally acting drugs such as the opioid analgesics. The second phase is associated with the development of an inflammatory response and facilitation of synaptic transmission in the spinal cord.
In the model of licking behavior induced by formaldehyde, the inflammatory stimulus (0.92%, 20 μL) is injected into the dorsum of the right hindpaw of mice. Immediately after the injection, the animals present a nociceptive behaviour characterized by licking and biting the injected paw. The licking time is determined between 0 and 5 min (first phase) and 15 and 30 min (second phase) after formaldehyde injection. The first phase of the nociceptive response induced by formaldehyde in mice was inhibited by the highest dose of BS (50 mg/kg, i.p.).

[5] = test system: nociceptive response of mice on hot-plate (57° C.); test: Hot-plate model; type: in vivo; details: 10, 25 or 50 mg/kg i.p., -1 h
Experimental: (§2) In the hot-plate model, the mice are placed over a hot-plate (57° C.). The latency to jump or lick the paws is determined. In this model, direct and immediate activation of peripheral afferent fibbers occurs. Thus, drugs that act mainly in the central nervous system inhibit the nociceptive response in this model.
as §2, with “fibers” for “fibbers”

[6] = test system: Wistar Audiogenic Rats (WAR) with audiogenic seizures; test: Audiogenic seizures (AS) in Wistar Audiogenic Rats, blockade of tonic component; type: in vivo, rat
Excerpt: Comparison of the Anticonvulsant Effect of Free Benzaldehyde Semicarbazone (BS) and the HP-β-CD/BS Pharmaceutical Composition in Wistar Audiogenic Rats (WAR) with Audiogenic Seizures (AS). Typically WARs Present Running Fits, Jumping, Atonic Falling Followed by Tonic-Clonic Seizures and Clonic Spasms when Submitted to High Intensity Sound Stimulus (120 dB SPL)
(§3) Female Wistar Audiogenic Rats (WARs) from our own inbred colony, maintained at the animal facilities of the Physiology Department of Federal University of Minas Gerais, Brazil, weighing 250-300 g, were used. They were kept at 24° C., in groups of 5 per cage receiving chow pellets and water ad libitum. The light/dark cycle was 12 h:12 h, with lights on at 7:00 am and lights off at 7:00 pm. Efforts were made in order to avoid any unnecessary distress to the animals, in accordance to the Guidelines for Animal Experimentation of Federal University of Minas Gerais, Brazil.
Audiogenic seizures (AS) were induced by a sound stimulus (120 dB) delivered into an acoustic chamber through a loud speaker, until tonic seizures appeared, or during a maximum of 1 minute. Behavior was evaluated by a severity index (SI) ranging from SI=0.0 to SI=1.0 (maximum).
Typically WARs present running fits, jumping and atonic falling followed by tonic-clonic seizures and clonic spasms (SI≧0.85). Animals were stimulated three times, once every three days before the beginning of experiments, in order to screen them for seizure severity (control recording). Seven days after the third stimulation they were used in the experiments. To evaluate the effect of decreasing on AS severity, it was taken as criteria the blockade of the tonic component of seizure, which means to obtain SI<0.61.

[7] = test system: Wistar normal rats with electroshock induced seizures; test: Maximum electroshock screening (MES), blockade of hindlimb extension; type: in vivo, rat
Experimental: Comparison of the Anticonvulsant Effect of Free Benzaldehyde Semicarbazone (BS) and the BS/HP-β-CD and BS/β-CD Pharmaceutical Compositions in Wistar Normal Rats with Electroshock Induced Seizures (Maximum Electroshock Screening, MES)
as §3, with “Wistar” for “Female Wistar”, “rats” for “Audiogenic Rats (WARs)”, “the main breeding stock of the Institute of Biological Sciences, Federal University of Minas Gerais, Brazil,” for “our own inbred colony,”, “Department,” for “Department of Federal University of Minas Gerais, Brazil,”
Electroshock seizures were induced by electric stimulus, produced by an ELEKTROSCHOCKGERAT apparatus (Karl Kolbe, Scientific Technical Supplies, Frankfurt, Germany) using a current of 70 mA, 60 Hz, during 1 second through a pair of ear clip electrodes.
The behavioral evaluation was carried out by analyzing the tonic component in a four points scale as follows: 0=no seizure; 1=forelimb extension without hind limb extension; 2=complete forelimb extension and partial hind limb extension; 3=complete hind limb extension, which stays parallel to the tail. To evaluate the effect of decreasing on electroshock induced seizures severity, it was taken as criteria the blockade of complete fore- and hind limb extension (score≦1).

Compound | time spent in the rota-rod (motor activity of mice) | reduction in the hemoglobin content of implants ([1]; 0.05 mg/kg ip, 9 days after implantation) | reduction in the hemoglobin content of implants ([1]; the other doses (0.25, 0.5 and 2.5 mg/kg ip)) | nociceptive response in thermal allodynia (paw withdrawal latency) [2] | carrageenan-induced edema (paw volume) [3] | second phase of the nociceptive response (licking time 15-30 min) ([4]; all doses: 10, 25 and 50 mg/kg i.p., -1 h) | first phase of the nociceptive response (licking time 0-5 min) ([4]; highest dose, 50 mg/kg i.p.) | anti-nociceptive effect (latency to jump or lick the paws) [5] | animals with tonic component of seizures blocked ([6]; 50 mg/Kg ip) | animals with tonic component of seizures blocked ([6]; 75 mg/Kg ip) | animals with tonic component of seizures blocked ([6]; 100 mg/Kg ip) | minimum dose necessary to produce anticonvulsant activity ([6]; vo and ip) | animals with hindlimb extension blocked ([7]; 100 mg/Kg ip and vo, males) | animals in which active, 240 minutes after administration ([7]; 240 minutes after administration (vo)) | minimum dose necessary to produce anticonvulsant activity ([7]; ip) | minimum dose necessary to produce anticonvulsant activity ([7]; vo) | increase in hemoglobin content of implants ([1]; 0.25 mg/kg, relative to the control group) | increase of hemoglobin content (vascular index), summary statement ([1]; dose not stated)
NC(=O)NN=Cc1ccccc1 [BS, benzaldehyde semicarbazone] | did not reduce the time spent in the rota-rod | unable to reduce the hemoglobin content | more than 50% | statistically inhibited | inhibited the carrageenan-induced edema | markedly inhibited | inhibited | did not exhibit anti-nociceptive effect | 33% | 50% | 83% | 100 mg/kg | about 90% | no activity | 100 mg/kg | 100 mg/kg | – | –
bromobenzaldehyde semicarbazone [BrBs] | – | – | – | – | – | – | – | – | – | – | – | – | – | – | – | – | about 30% | more than 30%
